Measured values as given in paper PMC3267017, “Design, synthesis and in vitro evaluation of novel bivalent S-adenosylmethionine analogues” (Bioorganic & Medicinal Chemistry Letters, 2012).
Structures can show the parent of a compound that is named as a salt. Where two headings read alike, the source gives them in different places.

Target: MetJ dimer–DNA complex (F-metC) (Escherichia coli, UniProt P0A8U6)
Test: Fluorescence anisotropy assay: MetJ titrated into F-metC DNA and ligand, MetJ dimer–DNA complex formation
Type: binding
Settings: for EC50: F-metC 10 nM, average of three titrations, read-out: EC50, concentration of MetJ monomer required to promote half-maximal formation of its complex with the F-metC DNA; for Fold-improvement over monovalent control 11: unquaternised bivalent ligand 1 mM vs 11 at 2 mM; for Fold-improvement over monovalent control 4: ligands 2 mM
From the text: A fluorescence anisotropy-based binding assay was used to compare the relative ability of SAM analogues to promote MetJ dimer–DNA complex formation. Since SAM has low affinity for MetJ in the absence of DNA,[8,13] measurements were made in the presence of the DNA fragment F-metC, a fluorescently-labeled analogue of the shortest naturally occurring operator sequence, metC.[14] Titration of MetJ into a solution containing fixed concentrations of F-metC and ligand allows the change in anisotropy related to ternary complex formation to be measured (Fig. 5).
Figure 5 Cartoon illustrating the fluorescence anisotropy assay. The SAM molecules promote the formation of a SAM–F-metC–protein complex, with two MetJ dimers bound to the 18 base-pair DNA duplex.
The half-maximal concentration of MetJ, EC50, required to promote complex formation was determined for each ligand. […] The monovalent ligands 11 and 12 (2 mM) and the bivalent ligands 9 and 10 (1 mM) all promoted the formation of the MetJ–DNA complex (Table 1). […] The unquaternised bivalent ligands 9a–e (1 mM) promoted complex formation up to about threefold more effectively than the corresponding monovalent analogue 11. Similarly, the quaternised bivalent ligands 10a and 10b promoted, respectively, complex formation 2.4- and 3.6-fold more effectively than the quaternised monovalent analogue 12.
Analysis of novel SAM analogues binding to MetJ in the presence of operator DNA was carried out using fluorescence anisotropy. Fluorescence anisotropy experiments were performed on a Spex Fluorolog Tau spectrofluorometer (HORIBA Jobin Yvon) controlled by Datamax software. The excitation and emission wavelengths were set to 488 nm and 517 nm respectively. Slit widths were set to 5 nm and all experiments were carried out at 19 °C. The detector integration time was 5 seconds and three readings were taken of each sample to obtain an average anisotropy. Free anisotropy values were 0.051-0.060. Increase in fluorescence anisotropy was observed upon titration of MetJ into a solution of F-metC (10 nM) with and without ligand ([…]) in TK buffer pH 7.6 (50 mM Trizma hydrochloride pH 7.6, 100 mM KCl) with a total starting volume of 200 µL. […] The final DMSO concentration was 2% or less. After each addition, the sample was mixed with a pipette and left to equilibrate for five minutes before the fluorescence anisotropy readings were acquired. The intensity of linear and perpendicular light, compared to the excitation light is measured experimentally and the anisotropy was calculated using the following equation:‖
The data was fitted to a sigmoidal growth logistic model using the following equation: […]
Where A1 refers to the initial value, A2 refers to the final value, x0 refers to the centre and p is a value relating to the slope of the transition. Errors refer the standard deviation of three titration repeats. An arbitrary weighting function with the following equation was employed: […]

[1] = monovalent ligand 2 mM, DMSO 2%

Chain of MetJ dimer–DNA complex (F-metC) (P0A8U6 2-105, one chain of several): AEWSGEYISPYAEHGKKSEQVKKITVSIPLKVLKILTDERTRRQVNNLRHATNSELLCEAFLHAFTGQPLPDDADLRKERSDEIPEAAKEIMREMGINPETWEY

CCCNC(=O)CCC[N+](C)(C)C[C@H]1O[C@@H](n2cnc3c(N)ncnc32)[C@H](O)[C@@H]1O [Compound 5, reference compound]
EC50 (quaternised ligands 2 mM): 150 ± 10 nM

CN(CC[C@H](N)C(=O)NCc1ccc(CNC(=O)[C@@H](N)CCN(C)C[C@H]2O[C@@H](n3cnc4c(N)ncnc43)[C@H](O)[C@@H]2O)cc1)C[C@H]1O[C@@H](n2cnc3c(N)ncnc32)[C@H](O)[C@@H]1O [Compound 9a, N,N′-(1,4-Phenylenebismethylene)bis{(2′S)-2′-amino-4′-[5′′-deoxy-5′′-(methylamino)-adenosyl]butanamide}]
EC50 (bivalent ligand 1 mM, DMSO 2%): 61 ± 3 nM
Fold-improvement over monovalent control 11: 2.0-fold

CN(CC[C@H](N)C(=O)NCc1cccc(CNC(=O)[C@@H](N)CCN(C)C[C@H]2O[C@@H](n3cnc4c(N)ncnc43)[C@H](O)[C@@H]2O)c1)C[C@H]1O[C@@H](n2cnc3c(N)ncnc32)[C@H](O)[C@@H]1O [Compound 9b, N,N′-(1,3-Phenylenebismethylene)bis{(2′S)-2′-amino-4′-[5′′-deoxy-5′′-(methylamino)-adenosyl]butanamide}]
EC50 (bivalent ligand 1 mM, DMSO 2%): 37 ± 2 nM
Fold-improvement over monovalent control 11: 3.2-fold

CN(CC[C@H](N)C(=O)NCc1ccccc1-c1ccccc1CNC(=O)[C@@H](N)CCN(C)C[C@H]1O[C@@H](n2cnc3c(N)ncnc32)[C@H](O)[C@@H]1O)C[C@H]1O[C@@H](n2cnc3c(N)ncnc32)[C@H](O)[C@@H]1O [Compound 9c, N,N′-(Biphenyl-2,2′-diylybismethylene)bis{(2′′S)-2′′-amino-4′′-[5′′′-deoxy-5′′′-(methylamino)-adenosyl]butanamide}]
EC50 (bivalent ligand 1 mM, DMSO 2%): 39 ± 1 nM
Fold-improvement over monovalent control 11: 3.1-fold

CN(CC[C@H](N)C(=O)NCc1cccc(-c2cccc(CNC(=O)[C@@H](N)CCN(C)C[C@H]3O[C@@H](n4cnc5c(N)ncnc54)[C@H](O)[C@@H]3O)c2)c1)C[C@H]1O[C@@H](n2cnc3c(N)ncnc32)[C@H](O)[C@@H]1O [Compound 9d, N,N′-(Biphenyl-3,3′-diylybismethylene)bis{(2′′S)-2′′-amino-4′′-[5′′′-deoxy-5′′′-(methylamino)-adenosyl]butanamide}]
EC50 (bivalent ligand 1 mM, DMSO 2%): 75 ± 4 nM
Fold-improvement over monovalent control 11: 1.6-fold

CN(CC[C@H](N)C(=O)NCC#CC#CCNC(=O)[C@@H](N)CCN(C)C[C@H]1O[C@@H](n2cnc3c(N)ncnc32)[C@H](O)[C@@H]1O)C[C@H]1O[C@@H](n2cnc3c(N)ncnc32)[C@H](O)[C@@H]1O [Compound 9e, N,N′-(Hexa-2,4-diyne-1,6-diyl)bis{(2′S)-2′-amino-4′-[5′′-deoxy-5′′-(methylamino)-adenosyl]butanamide}]
EC50 (bivalent ligand 1 mM, DMSO 2%): 111 ± 5 nM
Fold-improvement over monovalent control 11: 1.1-fold

C[N+](C)(CC[C@H](N)C(=O)NCc1ccc(CNC(=O)[C@@H](N)CC[N+](C)(C)C[C@H]2O[C@@H](n3cnc4c(N)ncnc43)[C@H](O)[C@@H]2O)cc1)C[C@H]1O[C@@H](n2cnc3c(N)ncnc32)[C@H](O)[C@@H]1O [Compound 10a, N,N′-(1,4-Phenylenebismethylene)bis{(2′S)-2′-amino-4′-[5′′-deoxy-5′′-(dimethylamino)-adenosyl]butanamide}iodide tetratrifluoroacetic acid salt]
EC50 (bivalent ligand 1 mM, DMSO 2%): 15 ± 5 nM

C[N+](C)(CC[C@H](N)C(=O)NCc1cccc(CNC(=O)[C@@H](N)CC[N+](C)(C)C[C@H]2O[C@@H](n3cnc4c(N)ncnc43)[C@H](O)[C@@H]2O)c1)C[C@H]1O[C@@H](n2cnc3c(N)ncnc32)[C@H](O)[C@@H]1O [Compound 10b, N,N′-(1,3-Phenylenebismethylene)bis{(2′S)-2′-amino-4′-[5′′-deoxy-5′′-(dimethylamino)-adenosyl]butanamide}iodide tetratrifluoroacetic acid salt]
EC50 (bivalent ligand 1 mM, DMSO 2%): 10 ± 1 nM

CN(CC[C@H](N)C(=O)NCc1ccccc1)C[C@H]1O[C@@H](n2cnc3c(N)ncnc32)[C@H](O)[C@@H]1O [Compound 11, 5′-[{(3′′S)-4′′-Benzylamino-3′′-amino-4′′-oxobutyl}methylamino]-5′-deoxyadenosine]
EC50 [1]: 120 ± 10 nM

C[N+](C)(CC[C@H](N)C(=O)NCc1ccccc1)C[C@H]1O[C@@H](n2cnc3c(N)ncnc32)[C@H](O)[C@@H]1O [Compound 12, 5′-[{(3′′S)-4′′-Benzylamino-3′′-amino-4′′-oxobutyl}dimethylamino]-5′-deoxyadenosine iodide ditrifluoroacetic acid salt]
EC50 [1]: 36 ± 6 nM

CN(CCCC(=O)NCCCCn1nnc2c1CCCCCC2OCCNC(=O)CCCN(C)C[C@H]1O[C@@H](n2cnc3c(N)ncnc32)[C@H](O)[C@@H]1O)C[C@H]1O[C@@H](n2cnc3c(N)ncnc32)[C@H](O)[C@@H]1O (stereo partly drawn) [Compound 15b, 4-((Adenosyl)(methyl)amino)-N-(2-(1-(4-(4-((adenosyl) (methyl)amino)butanamido)butyl)-4,5,6,7,8,9-hexahydro-1H-cycloocta[d][1,2,3]triazol-4-yloxy)ethyl)butanamide and 4-(-((adenosyl)(methyl)amino)-N-(2-(1-(4-(4-(-((adenosyl)(methyl)amino)butanamido)butyl)-4,5,6,7,8,9-hexahydro-1H-cycloocta[d][1,2,3]triazol-9-yloxy)ethyl)butanamide]
EC50 (unquaternised ligands 2 mM): 76 ± 2 nM

C[N+](C)(CCCC(=O)NCCCCn1nnc2c1CCCCCC2OCCNC(=O)CCC[N+](C)(C)C[C@H]1O[C@@H](n2cnc3c(N)ncnc32)[C@H](O)[C@@H]1O)C[C@H]1O[C@@H](n2cnc3c(N)ncnc32)[C@H](O)[C@@H]1O.[I-].[I-] (stereo partly drawn) [Compound 16b, 4-((Adenosyl)(dimethyl)amino)-N-(2-(1-(4-(4-((adenosyl) (dimethyl)amino)butanamido)butyl)-4,5,6,7,8,9-hexahydro-1H-cycloocta[d][1,2,3]triazol-4-yloxy)ethyl)butanamide diiodide and 4-(-((adenosyl)(dimethyl)amino)-N-(2-(1-(4-(4-(-((adenosyl)(dimethyl)amino)butanamido)butyl)-4,5,6,7,8,9-hexahydro-1H-cycloocta[d][1,2,3]triazol-9-yloxy)ethyl)butanamidediiodide]
Fold-improvement over monovalent control 5 (quaternised ligands 2 mM): 3.6-fold
EC50 (quaternised ligands 2 mM): 42 ± 3 nM

CN(CCCC(=O)NCCNC(=O)CCCN(C)C[C@H]1O[C@@H](n2cnc3c(N)ncnc32)[C@H](O)[C@@H]1O)C[C@H]1O[C@@H](n2cnc3c(N)ncnc32)[C@H](O)[C@@H]1O [Compound 18a, N,N′-Di-[5′-deoxy-5′-N-methyl-N′-(4-butyryl)-adenosine]-1,2-ethylenediamine]
Fold-improvement over monovalent control 4: 1.4-fold
EC50 (unquaternised ligands 2 mM): 700 ± 50 nM

CN(CCCC(=O)NCCCNC(=O)CCCN(C)C[C@H]1O[C@@H](n2cnc3c(N)ncnc32)[C@H](O)[C@@H]1O)C[C@H]1O[C@@H](n2cnc3c(N)ncnc32)[C@H](O)[C@@H]1O [Compound 18b, N,N′-Di-[5′-deoxy-5′-N-methyl-N′-(4-butyryl)]-1,3-diaminopropane]
Fold-improvement over monovalent control 4: 3.1-fold
EC50 (unquaternised ligands 2 mM): 320 ± 40 nM

CN(CCCC(=O)NCCCCNC(=O)CCCN(C)C[C@H]1O[C@@H](n2cnc3c(N)ncnc32)[C@H](O)[C@@H]1O)C[C@H]1O[C@@H](n2cnc3c(N)ncnc32)[C@H](O)[C@@H]1O [Compound 18c, N,N′-Di-[5′-deoxy-5′-N-methyl-N′-(4-butyryl)-adenosine]-1,4-diaminobutane]
Fold-improvement over monovalent control 4: 4.5-fold
EC50 (unquaternised ligands 2 mM): 220 ± 20 nM

CN(CCCC(=O)NCCCCCCNC(=O)CCCN(C)C[C@H]1O[C@@H](n2cnc3c(N)ncnc32)[C@H](O)[C@@H]1O)C[C@H]1O[C@@H](n2cnc3c(N)ncnc32)[C@H](O)[C@@H]1O [Compound 18d, N,N′-Di-[5′-deoxy-5′-N-methyl-N′-(4-butyryl)-adenosine]-1,6-diaminohexane]
EC50 (unquaternised ligands 2 mM): 47 ± 1 nM

C[N+](C)(CCCC(=O)NCCCNC(=O)CCC[N+](C)(C)C[C@H]1O[C@@H](n2cnc3c(N)ncnc32)[C@H](O)[C@@H]1O)C[C@H]1O[C@@H](n2cnc3c(N)ncnc32)[C@H](O)[C@@H]1O.[I-].[I-] [Compound 19b, N,N′-Dimethyl-N,N′-di-[5′-deoxy-5′-N-methyl-N′-(4-butyryl)-adenosine]-1,3-diaminopropane diiodide]
Fold-improvement over monovalent control 5 (quaternised ligands 2 mM): 1.4-fold
EC50 (quaternised ligands 2 mM): 108 ± 3 nM
